Series [1] has as its system Staphylococcus aureus ATCC29213. In words: MIC determination in broth microdilution assay. It counts as cell-based. Conditions: A: Staphylococcus aureus ATCC29213; MH-broth microdilution. A general note: In broth dilution the organism is exposed to a series of concentrations in liquid medium.
The test system of series [2] is Staphylococcus aureus ATCC33591 (resistant to methicillin). In words: MIC determination in broth microdilution assay. Format: cell-based. Particulars: B: Staphylococcus aureus ATCC33591 (resistant to methicillin); MH-broth microdilution.
Series [3] deals with Staphylococcus intermedius #2357 (clinical isolate from the Copenhagen area). In words: MIC determination in broth microdilution assay. Format: cell-based. Conditions: C: Staphylococcus intermedius #2357 clinical isolate; MH-broth microdilution.
Series [4] concerns Enterococcus faecalis ATCC29212. In words: MIC determination in broth microdilution assay. It counts as cell-based. Conditions: D: Enterococcus faecalis ATCC29212; MH-broth microdilution.
Series [5] has as its system Enterococcus faecium #17501 (vancomycin-resistant clinical isolate). In words: MIC determination in broth microdilution assay. Format: cell-based. Conditions: E: Enterococcus faecium #17501 vancomycin-resistant clinical isolate; MH-broth microdilution.
The test system of series [6] is Streptococcus pneumoniae #998 (clinical isolate). In words: MIC determination in broth microdilution assay. It counts as cell-based. Particulars: F: Streptococcus pneumoniae #998 clinical isolate; MH-broth microdilution.
Series [7] has as its system Eschericia coli ATCC25922. In words: MIC determination in broth microdilution assay. It counts as cell-based. Conditions: G: Eschericia coli ATCC25922; MH-broth microdilution.
Series [8] deals with panel of 10 different non-fastidious bacteria growing aerobically. In words: Activity against non-fastidious bacteria (panel, discussed in words). It counts as cell-based. Particulars: Gram-positive non-fastidious bacteria; comparison with Licochalcone A.
The test system of series [9] is panel of anaerobic bacteria (Bacteroides fragilis, Clostridium perfringens, Clostridium difficele). It counts as cell-based. Particulars: single concentration of compound (100 μM); agar dilution. (In general: Agar dilution tests growth on a series of plates holding different concentrations.)
Series [10] can be described thus: Pharmacokinetic studies, intravenous, mice. It counts as in vivo, female NMRI mice. As for the experimental part:
Evaluation of the pharmacokinetic properties of the compounds was done using female NMRI mice (weighing app. 30 g). Test articles were administrated intravenously and Samples of serum were taken at defined time-points. Standards and QC-samples in plasma were prepared and the serum concentrations of the test compounds quantified by HPLC-MS. Prior to analysis, proteins were precipitated by deluding the samples (1:1) (v/v) with 100% acetonitrile followed by centrifugation at 14,000 rpm in 10 min. The supernatant was used for the analysis. A Waters Alliance HPLC-system (Milford, Mass., USA) was coupled to a Quatro Micro triple quadropl mass spectrometer (Micromass, Manchester, UK) operating in positive (ESI) mode. Separation was performed on a XTerra MS C18 column (150*2.1 mm I.D., 3,5 μm particle size) (Waters Milford, Mass., USA). Mobile phase A: 0.1% (v/v) formic acid or 10 mM ammonium acetate pH-adjusted to 9.5 in MilliQ-water, mobile phase B: 100% methanol. The gradient was as follows: 0 min=70% A-30% B, 0-10 min. a linear gradient to 10% A and 90% B this was maintained till 11 min, 11-13 linear gradient to 70% A and 30% B this was maintained till 18 min. The flow rate was 0.20 ml/min, injection volume 10 μl.

The nature of series [11]: MIC of D-001 quoted in the pharmacokinetic profile (strain not named). It counts as cell-based.
Series [12] has as its system panel of six strains Helicobacter pylori, includes strains resistant to metronidazole. In words: MIC determination against Helicobacter pylori (agar dilution). Particulars: 72 h, read-out: MICs against Helicobacter pylori.

Data on one molecule can be found in patent US20080027075A1, “Quaternary Amino-Function Chalcones” (Lica Pharmaceuticals A/S, priority 2003, published 2008).

Structures are written as SMILES.

As for `COc1ccc(C(=O)/C=C/c2cc(-c3cc(C)cc(C)c3)ccc2OCC[N+](C)(C)C)c(Cl)c1.[I-]` [D-001, (2-{3-[3-(2-Chloro-4-methoxy-phenyl)-3-oxo-propenyl]-3′,5′-dimethyl-biphenyl-4-yloxy}-ethyl)-trimethyl-ammonium; iodide], the MIC is 2.4 µM in series [1]; 4.7 µM in series [2]; 2.4 µM in [3]; 4.7 µM in series [4]; 4.7 µM in [5]; 18.8 µM in [6]. The MIC in series [7] was 37.5 µM; in series [11] it was “approximately 1 μg/mi”; in series [12], 50 to 100 µM. The “activity against pathogenic Gram-positive bacteria (in words)” value in series [8] is given as “increased potency”. The “activity against anaerobic bacteria” value in series [9] is given as “activity against all microorganisms within the test panel”. In addition, the Cmax in series [10] (female, NMRI, mouse, serum, iv, single i.v. dose of 5 mg/ml) was determined as 126 µg/mL. In addition, in [10] (i.v., as indicated by the plasma concentration), the volume of distribution result is “very low”.

As a reminder, the Cmax is the maximum level reached in the sampled fluid or tissue.
